This note sets out measurements from patent US8470333B2, “Chimeric peptides comprising HER-2 B-cell epitopes and T-helper epitopes” (The Ohio State University Research Foundation, priority 2005, dated 2013).

Positions of bridges follow the written chain, without caps; N, C: chain ends. No end group written: not given here.

The nature of one assay: ADCC assay (Example 1). Conditions: antibodies against the epitope. It is filed as cell-based. From the text:
(§1) The human EGFR disulfide pairings have been defined. Based on the high homology between EGFR and HER-2, the 628-647 epitope to 626-649 to incorporate two disulfide bonds between Cys-626 and Cys-634, and Cys-630 and Cys-642. Differential side chain protection and a specialized deprotection and oxidation successfully generated the cyclized product with a desired secondary structural characteristics as determined by CD measurements. […] Cyclized antibodies elicited twice the level of specific lysis compared to non-cyclized antibodies in an ADCC assay (11 and 5.6% respectively). To investigate the in vivo effect of these peptide vaccines, inbred FVB/N mice were immunized with the constructs. Both constructs were immunogenic in these mice with the cyclized construct generating higher titers. These mice were then challenged with the NT2.5 tumor cell line which has an FVB/N background.

A further assay concerns NT2.5 tumor cell line. The assay can be described thus: NT2.5 tumor challenge in immunized FVB/n mice. Format: in vivo, mouse. Conditions: for doubling time: NT2.5 tumor in vaccinated FVB/N mice; for mean tumor volumes at day 30: FVB/n mice, 5×10^6 NT2.5 cells s.c. two weeks after final immunization, data not shown.
Description: as §1
To better understand the potential clinical benefit associated with introducing conformational constraints into B-cell epitope vaccines, both FVB/n and neu-N transgenic mice were challenged with the tumor cell line NT2.5 derived from a spontaneous mammary tumor isolated from a neu-N transgenic mouse. As a consequence of neu over-expression these mice develop spontaneous mammary adenocarcinomas in a manner similar to that observed in human breast cancer patients, and are therefore a suitable model for human breast cancer studies. […] (lower abdomen) two weeks after final immunization. Tumor measurements were taken twice weekly until day 55. Tumor volumes were calculated by the formula (long measurement×short measurement^2)/2. Note that after day 30 the tumors in FVB/n mice begin to regress, indicative of rejection of the tumor. With subsequent tumor studies using FVB/n mice, tumors were measured to day 30.

In another assay the test system is FVB/n mice. The assay can be described thus: Immunogenicity in FVB/n mice, antibody titers by direct ELISA. It is filed as in vivo, mouse. On the procedure:
Groups of four to ten FVB/n mice were immunized with linear (NC) or disulfide-bonded (SS) peptide constructs (A) MVF563-598, (B) MVF585-598, (C) MVF597-626, or the linear peptide (D) MVF613-626. Each mouse is represented as an individual bar. Note that the scale in A is different then B-D;
Direct ELISAs were performed on sera from mice immunized with the cyclized (CYC) and linear (NC) constructs to determine differences in immunogenicity. Antibody titers against the corresponding immunogen were defined as the reciprocal of the highest dilution with absorbance ≧0.2. Each bar represents an individual mouse. Designation on the x-axis represents time at which sera was sampled, e.g. 1y+3 corresponds to serum collected three weeks after the first immunization. Neu-N mice have an FVB/n background and express normal rat neu proto-oncogene under control of a mammary-specific promoter. These mice show tolerance to neu relative to non-transgenic mice (Cancer Research 60, 3569).
Direct ELISA. U-bottom polyvinyl chloride plastic assay plates were coated with 100 μl of antigen at 2 μg/ml in PBS overnight at 4° C. Nonspecific binding sites were blocked for 1 hour with 200 μl PBS-1% BSA and plates were washed with PBT (phosphate-buffered saline containing 0.05% Tween 20 and 1% horse serum). Rabbit antiserum 1/500 or mouse antiserum 1/50 in PBT was added to antigen coated plates, serially diluted 1:2 in PBT, and incubated 2 hr at room temperature. After washing the plates, 50 μl of 1/500 goat anti-rabbit or goat anti-mouse IgG conjugated to horseradish peroxidase (Pierce Chemical Co.) was added to each well. Excess antibody conjugate was removed, and bound antibody was detected using 50 μl of 0.15% H2O2 in 24 mM citric acid, 5 mM sodium phosphate buffer, pH 5.2, with 0.5 mg/ml […] as the chromophore. Color development was allowed to proceed for 10 min and the reaction was stopped with 25 μl of 1% sodium dodecylsulfate. Absorbance was determined at 410 nm using a Dynatech MR700ELISA reader. Results are expressed as the mean absorbance of duplicate wells after subtraction of background.
The immunogenicity of the 4 constructs listed in Table 1 was determined using both the disulfide-bonded and linear constructs by immunizing groups of FVB/n mice (n=4-9) 6-8 weeks old. […] Three mice that received the cyclized form of 597-626 had titers above 120,000, while no mouse that received the linear form had titers above 120,000.

The subject of the next assay is effector human PBMCs. Put plainly: IFN-γ release in the presence of effector human PBMCs. It is filed as cell-based. Conditions: antibodies against the construct.
For another assay, the target named is T1, HER-2 protein (Homo sapiens, UniProt P04626).
T1 construct: endogenous in cells; host or cells: SKBR3 or MCF-7 according to the general method
Put plainly: Flow cytometry binding of anti-peptide antibodies to HER-2 protein (Example 1). Format: cell-based. The note with it: antibodies against the epitope; flow cytometry binding to HER-2 protein. As for the experimental part: Indirect Binding Assay. SKBR3 cells or MCF-7 cells were plated at 5,000 cells/well in V-bottom plates (Linbro, McLean Va.). The cells were incubated with various concentrations of antibodies. After being washed with Hank's Balanced Salts Solution (HBSS) the cells were incubated for one hour with fluorescein isothiocyanate (FITC)-conjugated goat anti-rabbit or goat anti-mouse antibody and fixed with formalin. A mouse monoclonal Ab (Oncogene Science, Cambridge, Mass.) was used as the positive control and an anti-CD3 Ab as the negative control. The cells were analyzed by a Coulter ELITE flow cytometer (Coulter, Hialeah, Fla.), which has an argon laser for excitation at 488 nm, and a 525 run band pass filter for FITC fluorescence 5.0×10^3 cells were counted for each sample and final processing was performed. Debris, cell clusters and dead cells were gated out by light scatted assessment before single parameter histograms were drawn.
The human EGFR disulfide pairings have been defined. Based on the high homology between EGFR and HER-2, the 628-647 epitope to 626-649 to incorporate two disulfide bonds between Cys-626 and Cys-634, and Cys-630 and Cys-642. Differential side chain protection and a specialized deprotection and oxidation successfully generated the cyclized product with a desired secondary structural characteristics as determined by CD measurements. […]
Background: Flow cytometry measures light scatter and fluorescence of single cells or particles in a stream.

For assay [1], the system named is cells overexpressing HER-2. Put plainly: Anchorage-independent growth assay. Format: cell-based. The note with it: antibodies against the epitope.
In assay [2] the test system is SKBR-3 breast cancer cell line. The assay can be described thus: Flow cytometry of peptide antibodies with SKBR-3 cells. Format: cell-based, human. The note with it: purified antibodies from immunized mouse sera, FIG. 13. On the procedure: (§2) The reactivity of purified antibodies from immunized mouse sera was tested with (A) BT474 and (B) SKBR-3 breast cancer cell lines using flow cytometric analysis. Ab binding was detected with goat-anti mouse FITC-conjugated abs. The x-axis represents fluorescent intensity, and the y-axis represents relative cell number. Each histogram contains an overlay of mouse pre IgG, peptide antibodies, and AB2, a mouse mAb that binds HER-2.
Cell Culture. Stock cultures were maintained at 37° C. in a 5% CO2 incubator. All cell culture media, FCS, and supplements were purchased from GEBCO (Grand Island, N.Y.). The human breast adenocarcinoma cell lines SKBR-3 and MCF-7 were obtained from the American Type Culture Collection and was subcultured in McCoy's 5A or DMEM supplemented with 10% FCS and L-glutainine. Cav-1 was maintained in RPMI 1640 with 10% FCS and L-glutamine. […] SKBR3 is a breast tumor cell line which overexpresses the HER-2 protein while MCF-7 expresses the normal concentration of protein.
Indirect Binding Assay. SKBR3 cells or MCF-7 cells were plated at 5,000 cells/well in V-bottom plates (Linbro, McLean Va.). […] The cells were analyzed by a Coulter ELITE flow cytometer (Coulter, Hialeah, Fla.), which has an argon laser for excitation at 488 nm, and a 525 run band pass filter for FITC fluorescence 5.0×10^3 cells were counted for each sample and final processing was performed. […]

For assay [3], the system named is BT-474 human breast cancer cells (HER-2high). The assay can be described thus: Flow cytometry of peptide antibodies with BT474 cells. Format: cell-based. As for the experimental part: Flow cytometry was used to assess whether antibodies from FVB/n mice induced by various constructs recognize native HER-2. BT-474 human breast cancer cells (HER-2high) were treated with 10 μg/mL of normal mouse Ig (negative control), mouse monoclonal Ab-2 (positive control), or peptide antibodies raised in FVB/n mice.
as §2
Indirect Binding Assay. SKBR3 cells or MCF-7 cells were plated at 5,000 cells/well in V-bottom plates (Linbro, McLean Va.). The cells were incubated with various concentrations of antibodies. […] The cells were analyzed by a Coulter ELITE flow cytometer (Coulter, Hialeah, Fla.), which has an argon laser for excitation at 488 nm, and a 525 run band pass filter for FITC fluorescence 5.0×10^3 cells were counted for each sample and final processing was performed. […]

The subject of another assay is trastuzumab. The assay can be described thus: ELISA binding of trastuzumab to peptides. Conditions: FIG. 4. On the procedure:
The peptide sequences are given on the x-axis. MVF316-339 is an Her-2 irrelevant control peptide;
Microtiter wells were coated overnight with 2 μg/ml of various peptides and then blocked with 1% BSA for one hour. […] Values shown are the mean of duplicate samples. SEM are indicated by error bars.

Where [4] appears, read: by day 33, compared to both unimmunized and MVF immunized mice.

The substance “KLLSLIKGVIVHRLEGVE-GPSL-CPINCTHSCVDLDDKGCPAEQRAS [626-649 linear]” showed a specific lysis in “ADCC assay (Example 1)” of 5.6%. In addition, in the assay with NT2.5 tumor cell line, the doubling time amounted to 4.31 days. In addition, the immunogenicity entry with FVB/n mice (inbred FVB/N mice, Example 1) is “immunogenic”. Also, the IFN-γ release entry with effector human PBMCs is “able to elicit IFN-γ release”. This substance also had a mean log fluorescence on HER-2 protein of 1.65. In addition, in [1], the “inhibition (reduction of growth)” value came out at 58%.
Turning to “KLLSLIKGVIVHRLEGVE-GPSL-VACAHYKDPPFCVA (KLLSLIKGVIVHRLEGVEGPSLVACAHYKDPPFCVA; disulfide 25-34 (inferred)) [MVF 585 SS]”, the tumor volume entry in the assay on NT2.5 tumor cell line (setting [4]) is “reduction in tumor volume”.
On to “KLLSLIKGVIVHRLEGVE-GPSL-VARCPSGVKPDLSYMPIWKFPDEEGACQPL [597-626 linear]”, for which, in the assay with FVB/n mice (no mouse of the group above this value), the titers is ≤ 120,000.
Consider “KLLSLIKGVIVHRLEGVE-GPSL-LHCPALVTYNTDTFESMPNPEGRYTFGASCV (KLLSLIKGVIVHRLEGVEGPSLLHCPALVTYNTDTFESMPNPEGRYTFGASCV; also: cyclized) [MVF 266 CYC]”, for which, in the assay on NT2.5 tumor cell line (wild-type FVB/n mice, 3×106 NT2.5 cells s.c., 24 days, compared to MVF immunized mice only), the “tumor development and growth” value was “delayed tumor development (A) and growth (B)”.
Consider “KLLSLIKGVIVHRLEGVE [MVF control peptide, reference compound]”, for which the doubling time in the assay with NT2.5 tumor cell line is reported as 4.48 days.
For “KLLSLIKGVIVHRLEGVE-GPSL-IWKFPDEEGACQPL (KLLSLIKGVIVHRLEGVEGPSLIWKFPDEEGACQPL) [MVF 613]”, the tumor volume entry in the assay with NT2.5 tumor cell line (setting [4]) is “reduction in tumor volume”. Further, the immunogenicity result with FVB/n mice (FVB/n mice, Example 3, FIG. 3) is given as “highly immunogenic”. Besides, the “recognition of HER-2” value in assay [2] is “recognize HER-2”; in [3] (purified antibodies from immunized mouse sera, FIG. 13), “recognize HER-2”. Further, in [3] (FVB/n purified antibodies, FIG. 5), the “shift in flow cytometry” value is reported as “shifted relative to normal mouse antibodies”.
Take “KLLSLIKGVIVHRLEGVE-GPSL-CHPECQPQNGSVTCFGPEADQCVACAHYKDPPFCVA (KLLSLIKGVIVHRLEGVEGPSLCHPECQPQNGSVTCFGPEADQCVACAHYKDPPFCVA; disulfide (positions not given here)) [MVF 563 SS]”: the “mean tumor volumes at day 30” value with NT2.5 tumor cell line (listed as 563-598 SS) amounted to 173.7292 mm^3. In addition, in the assay on FVB/n mice (FVB/n mice, Example 3, FIG. 3), the immunogenicity result was “highly immunogenic”. For the same substance, the titers entry with FVB/n mice (two mice of the group, three weeks after the third immunization) was “above 250,000”. The binding to trastuzumab result in the assay with trastuzumab is “Maximum binding”.
In the assay “ADCC assay (Example 1)”, “KLLSLIKGVIVHRLEGVE-GPSL-CPINCTHSCVDLDDKGCPAEQRAS [626-649 cyclized]” displayed a specific lysis of 11%. This substance also gave a doubling time in the assay on NT2.5 tumor cell line of 6.63 days. Moreover, the tumor volume entry in the assay on NT2.5 tumor cell line (immunized FVB/N mice challenged with NT2.5, compared to linear and control MVF immunized mice) is “reduction in tumor volume”. Further, the immunogenicity result in the assay on FVB/n mice (inbred FVB/N mice, Example 1) is listed as “higher titers”. In the assay on effector human PBMCs, the IFN-γ release entry is reported as “able to elicit IFN-γ release” and the “higher levels of IFN-γ compared to the linear antibodies” value came to 25%. On HER-2 protein, the mean log fluorescence was 2.29. Also, in assay [1], the “inhibition (reduction of growth)” value stood at 31%.
In the case of “KLLSLIKGVIVHRLEGVE-GPSL-CHPECQPQNGSVTCFGPEADQCVACAHYKDPPFCVA [563-598 NC]”, the “mean tumor volumes at day 30” value in the assay with NT2.5 tumor cell line turned out to be 166.517 mm^3.
